Results from publication PMC9281089 (Journal of Translational Medicine, 2022).
“Also recorded” adds a separate entry of the source. Structures can show the parent of a compound that is named as a salt.

Assays:
[1] = tested on: SARS-CoV-2_S (D614G)-pseudotyped lentivirus entry into ACE2-overexpressing 293T cells; assay type: cell-based
[2] = tested on: SARS-CoV-2_S (D614G)-pseudotyped lentivirus entry into ACE2-overexpressing Capan2 cells; assay type: cell-based

Compound	inhibiting effect on entry of the pseudovirus (EGFP/mCherry signal ratio) [1]	inhibiting effect on entry of the pseudovirus (EGFP/mCherry signal ratio) [2]	inhibiting effect on entry of the pseudovirus [2]
O=C1c2ccccc2C(=O)c2ccccc21 [TS-1276, anthraquinone]	significant inhibiting effects	did not present any significant inhibiting effects	–
N=C(N)c1ccc2cc(OC(=O)c3ccc(N=C(N)N)cc3)ccc2c1 [Nafamostat mesylate, reference compound]	significant inhibiting effects	exhibited an inhibiting effect; also recorded: block the pseudoviruses from entering	–
O=C(OC[C@H]1O[C@@H](OC(=O)c2cc(O)c(O)c(OC(=O)c3cc(O)c(O)c(O)c3)c2)[C@H](OC(=O)c2cc(O)c(O)c(OC(=O)c3cc(O)c(O)c(O)c3)c2)[C@@H](OC(=O)c2cc(O)c(O)c(OC(=O)c3cc(O)c(O)c(O)c3)c2)[C@@H]1OC(=O)c1cc(O)c(O)c(OC(=O)c2cc(O)c(O)c(O)c2)c1)c1cc(O)c(O)c(OC(=O)c2cc(O)c(O)c(O)c2)c1 [tannic acid, reference compound]	–	–	only a mild inhibiting effect; also recorded: did not observe any significant inhibiting effect
COc1ccc2c3ccnc4ccc(=O)n(c2c1)c43 [TS-984, 9-Methoxycanthin-6-one]	significant inhibiting effects; also recorded: greatly reduce the EGFP/mCherry signal ratio	strongest and was dose-dependent; also recorded: greatly reduce the EGFP/mCherry signal ratio; also recorded: effectively block the entry of pseudovirus into Capan2 cells with ACE2 overexpression in a dose-dependent manner	–
